For the experiment, the target named is T1, human Farnesoid X Receptor (FXR) ligand binding domain (GST-FXR LBD) (Homo sapiens, UniProt Q96RI1).
T1 construct: purchased Invitrogen
T1 sequence (Q96RI1 193-472 isoform Q96RI1-2): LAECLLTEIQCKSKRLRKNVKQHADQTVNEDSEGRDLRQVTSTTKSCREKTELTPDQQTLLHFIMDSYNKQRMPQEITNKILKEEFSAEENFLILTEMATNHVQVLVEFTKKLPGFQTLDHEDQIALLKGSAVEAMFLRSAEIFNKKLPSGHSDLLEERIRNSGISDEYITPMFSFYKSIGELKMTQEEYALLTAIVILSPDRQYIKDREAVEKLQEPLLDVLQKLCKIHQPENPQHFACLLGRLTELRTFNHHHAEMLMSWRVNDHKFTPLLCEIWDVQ
Briefly: Human GST-FXR LBD co-activator interaction assay (FXR HTRF assay). The following applies: GST-FXR LBD interaction with biotin-labeled SRC-1 peptide, FRET, response relative to GW4064, read-out: FXR coactivator interaction assay (HTRF). Format: biochemical.
As to `Cc1cc(C(=O)O)cc(C)c1OCCN(Cc1ccccc1F)C(=O)c1nn(C)c2c1COc1ccc(Cl)cc1-2` [Compound 47, 4-(2-(8-chloro-N-(2-fluorobenzyl)-1-methyl-1,4-dihydrochromeno[4,3-c]pyrazole-3-carboxamido)ethoxy)-3,5-dimethylbenzoic acid], the EC50 came out at 0.53 nM.
For `Cn1nc(C(=O)N(CC(=O)Nc2cc(C(=O)O)ccc2F)Cc2ccccc2F)c2c1-c1cc(F)c(F)cc1OC2` [Compound 17, 3-(2-(7,8-difluoro-N-(2-fluorobenzyl)-1-methyl-1,4-dihydrochromeno[4,3-c]pyrazole-3-carboxamido)acetamido)-4-fluorobenzoic acid] the value was 1 nM; for `Cn1nc(C(=O)N(Cc2cccc(F)c2)Cc2ccc(C(=O)O)cc2F)c2c1-c1cc(Cl)ccc1OC2` [Compound 96, 4-((8-chloro-N-(3-fluorobenzyl)-1-methyl-1,4-dihydrochromeno[4,3-c]pyrazole-3-carboxamido)methyl)-3-fluorobenzoic acid], 3.6 nM; for `Cn1nc(C(=O)N(CC(=O)Nc2cccc(C(=O)O)c2)Cc2ccccc2F)c2c1-c1ccccc1OC2` [Compound 12, 3-(2-(N-(2-fluorobenzyl)-1-methyl-1,4-dihydrochromeno[4,3-c]pyrazole-3-carboxamido)acetamido)benzoic acid], 5.4 nM.
For the compound `Cn1nc(C(=O)N(Cc2ccc(C(=O)O)cc2)Cc2cc(F)cc(F)c2)c2c1-c1cc(Cl)ccc1OC2` [Compound 78, 4-((8-chloro-N-(3,5-difluorobenzyl)-1-methyl-1,4-dihydrochromeno[4,3-c]pyrazole-3-carboxamido)methyl)benzoic acid], the EC50 turned out to be 8.3 nM.
For `Cn1nc(C(=O)N(CC(=O)Nc2cc(C(=O)O)ccc2F)Cc2ccccc2F)c2c1-c1ccccc1OC2` [Compound 16, 4-fluoro-3-(2-(N-(2-fluorobenzyl)-1-methyl-1,4-dihydrochromeno[4,3-c]pyrazole-3-carboxamido)acetamido)benzoic acid] the value was 3.4 nM; for `Cc1cc(C(=O)O)ccc1OCCN(Cc1ccccc1F)C(=O)c1nn(C)c2c1COc1ccc(Cl)cc1-2` [Compound 46], 3.2 nM; for `Cc1cccc(CN(CC(=O)Nc2cc(C(=O)O)ccc2F)C(=O)c2nn(C)c3c2COc2ccc(Cl)cc2-3)c1` [Compound 3, 3-(2-(8-chloro-1-methyl-N-(3-methylbenzyl)-1,4-dihydrochromeno[4,3-c]pyrazole-3-carboxamido)acetamido)-4-fluorobenzoic acid], 0.51 nM.
For `Cn1nc(C(=O)N(CCOc2ccc(C(=O)O)cc2F)Cc2ccccc2F)c2c1-c1cc(F)ccc1OC2` [Compound 61, 3-fluoro-4-(2-(8-fluoro-N-(2-fluorobenzyl)-1-methyl-1,4-dihydrochromeno[4,3-c]pyrazole-3-carboxamido)ethoxy)benzoic Acid] the value was 89 nM; for `Cn1nc(C(=O)N(Cc2ccc(C(=O)O)cc2)Cc2cc(F)cc(F)c2)c2c1-c1cc(F)ccc1OC2` [Compound 83, 4-((N-(3,5-difluorobenzyl)-8-fluoro-1-methyl-1,4-dihydrochromeno[4,3-c]pyrazole-3-carboxamido)methyl)benzoic acid], 14 nM.
For `Cn1nc(C(=O)N(CCOc2ccc(C(=O)O)cc2F)Cc2ccccc2)c2c1-c1cc(F)ccc1OC2` [Compound 56, 4-(2-(N-benzyl-8-fluoro-1-methyl-1,4-dihydrochromeno[4,3-c]pyrazole-3-carboxamido)ethoxy)-3-fluorobenzoic acid] the value was 40 nM; for `Cn1nc(C(=O)N(Cc2cccc(F)c2)Cc2ccc(C(=O)O)c(F)c2)c2c1-c1cc(Cl)ccc1OC2` [Compound 90, 4-((8-chloro-N-(3-fluorobenzyl)-1-methyl-1,4-dihydrochromeno[4,3-c]pyrazole-3-carboxamido)methyl)-2-fluorobenzoic acid], 5 nM.
Take `Cn1nc(C(=O)N(CCNc2cc(C(=O)O)ccc2F)Cc2ccccc2)c2c1-c1cc(Cl)ccc1OC2` [Compound 72, 3-((2-(N-benzyl-8-chloro-1-methyl-1,4-dihydrochromeno[4,3-c]pyrazole-3-carboxamido)ethyl)amino)-4-fluorobenzoic acid]: the EC50 was 2.6 nM.
For `Cn1nc(C(=O)N(CC(=O)NCC2(C(=O)O)CC2)Cc2ccccc2F)c2c1-c1cc(Cl)ccc1OC2` [Compound 42, 1-((2-(8-chloro-N-(2-fluorobenzyl)-1-methyl-1,4-dihydrochromeno[4,3-c]pyrazole-3-carboxamido)acetamido)methyl) cyclopropanecarboxylic acid] the value was 2.5 nM; for `Cn1nc(C(=O)N(CCNc2cccc(C(=O)O)c2)Cc2ccccc2F)c2c1-c1cc(Cl)ccc1OC2` [Compound 63, 3-((2-(8-chloro-N-(2-fluorobenzyl)-1-methyl-1,4-dihydrochromeno[4,3-c]pyrazole-3-carboxamido)ethyl)amino)benzoic Acid], 6 nM; for `Cn1nc(C(=O)N(Cc2ccccc2)Cc2ccc(C(=O)O)cc2F)c2c1-c1cc(Cl)ccc1OC2` [Compound 76, 4-((N-benzyl-8-chloro-1-methyl-1,4-dihydrochromeno[4,3-c]pyrazole-3-carboxamido)methyl)-3-fluorobenzoic acid], 9.6 nM.
To `Cn1nc(C(=O)N(CC(=O)Nc2cc(C(=O)O)ccc2F)Cc2ccccc2)c2c1-c1ccccc1OC2` [Compound 33, 3-(2-(N-benzyl-1-methyl-1,4-dihydrochromeno[4,3-c]pyrazole-3-carboxamido)acetamido)-4-fluorobenzoic acid] belongs 1.5 nM.

These data come from patent publication US11021446B2 (NOVARTIS AG, priority 2013, dated 2021).
